This experiment deals with T1, human GLP-1 receptor (Homo sapiens, UniProt P43220).
T1 construct: expressed in transfected cells
T1 sequence (P43220 24-463): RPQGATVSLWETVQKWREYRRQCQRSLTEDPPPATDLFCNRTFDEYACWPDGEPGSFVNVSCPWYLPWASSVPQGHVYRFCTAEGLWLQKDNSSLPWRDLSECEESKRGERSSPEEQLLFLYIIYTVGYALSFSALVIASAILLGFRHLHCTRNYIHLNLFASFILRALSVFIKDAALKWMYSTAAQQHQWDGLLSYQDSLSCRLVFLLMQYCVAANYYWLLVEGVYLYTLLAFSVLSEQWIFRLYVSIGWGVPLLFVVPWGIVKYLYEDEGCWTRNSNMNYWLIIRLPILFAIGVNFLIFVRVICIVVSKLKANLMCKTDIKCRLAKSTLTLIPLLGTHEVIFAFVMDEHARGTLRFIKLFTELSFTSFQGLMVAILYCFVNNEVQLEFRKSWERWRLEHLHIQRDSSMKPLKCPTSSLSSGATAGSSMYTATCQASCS
Description: GLP-1R cAMP Assay (HitHunter cAMP accumulation). The note with it: cAMP accumulation, CHO cells stably overexpressing human GLP-1 receptor, 30 min treatment; read-out: EC50. Type of experiment: cell-based. Summed up: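 CHO cells stably expressing human GLP-1R, 10,000 cells/well in HBSS with 10 mM HEPES and 625 μM IBMX, were mixed with anti-cAMP antibody reagent. Compound was applied as a 20-point dose response in triplicate for 30 min. After lysis and overnight detection, luminescence was read and dose-response curves analysed.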
For orientation: Changes in cAMP serve as a functional read-out for many G protein-coupled receptors.
`CCn1cncc1Cn1c(CN2CC[C@H](Oc3ccnc(COc4ccc(Cl)cc4Cl)c3)C2)nc2ccc(C(=O)O)cc21` [Example 244, (S)-2-((3-((2-((2,4-Dichlorophenoxy)methyl)pyridin-4-yl)oxy)pyrrolidin-1-yl)methyl)-1-((1-ethyl-1H-imidazol-5-yl)methyl)-1H-benzo[d]imidazole-6-carboxylic acid]: the concentration giving a half-maximal response (EC50) (in general, the concentration giving half of the maximal effect) was < 50 nM.

Take `CCn1cncc1Cn1c(CN2CC(=Cc3ccnc(COc4ccc(Cl)cc4Cl)c3)C2)nc2ccc(C(=O)O)cc21` [Compound 175, 2-{[3-({2-[(2,4-dichlorophenoxy)methyl]pyridin-4-yl}methylidene)azetidin-1-yl]methyl}-1-[(1-ethyl-1H-imidazol-5-yl)methyl]-1H-1,3-benzodiazole-6-carboxylic acid]: the half-maximal effective concentration (EC50) was < 50 nM. With `O=C(O)c1ccc2nc(CN3CC[C@H](c4cccc(COc5ccc(Cl)cc5Cl)c4)C3)n(C[C@@H]3CCO3)c2c1` (single isomer, unassigned) [Example 406] the figure was < 50 nM. With `O=C(O)c1ccc2nc(CN3CCC(c4cccc(COc5ccc(Cl)cc5Cl)c4)C3)n(C[C@@H]3CCO3)c2c1` (stereo partly drawn) [Example 383, 2-((3-(3-((2,4-Dichlorophenoxy)methyl)phenyl)pyrrolidin-1-yl)methyl)-1-(((S)-oxetan-2-yl)methyl)-1H-benzo[d]imidazole-6-carboxylic acid] the figure was < 50 nM. Next, `C[C@H]1[C@@H](Oc2ccnc(COc3ccc(C#N)cc3F)n2)CN1Cc1nc2c(F)cc(C(=O)O)cc2n1C[C@@H]1CCO1` [Compound 546, 2-{[(2S,3S)-3-({2-[(4-cyano-2-fluorophenoxy)methyl]pyrimidin-4-yl}oxy)-2-methylazetidin-1-yl]methyl}-4-fluoro-1-{[(2S)-oxetan-2-yl]methyl}-1H-1,3-benzodiazole-6-carboxylic acid]: < 50 nM; `O=C(O)c1ccc2nc(CN3CC(Oc4cccc(COc5ccc(Cl)cc5Cl)c4)C3)n(Cc3cnco3)c2c1` [Compound 238, 2-[(3-{3-[(2,4-dichlorophenoxy)methyl]phenoxy}azetidin-1-yl)methyl]-1-[(1,3-oxazol-5-yl)methyl]-1H-1,3-benzodiazole-6-carboxylic acid]: < 50 nM; `CCn1cncc1Cn1c(CN2CC(Oc3ccnc(COc4ccc(Cl)cc4Cl)c3)C2)nc2ccc(C(=O)O)cc21` [Compound 218, 2-{[3-({2-[(2,4-dichlorophenoxy)methyl]pyridin-4-yl}oxy)azetidin-1-yl]methyl}-1-[(1-ethyl-1H-imidazol-5-yl)methyl]-1H-1,3-benzodiazole-6-carboxylic acid]: < 50 nM. For `C[C@H]1[C@@H](Oc2ccnc(COc3ccc(F)cc3C#N)n2)CN1Cc1nc2ccc(C(=O)O)cc2n1C[C@@H]1CCO1` [Compound 549, 2-{[(2S,3S)-3-({2-[(2-cyano-4-fluorophenoxy)methyl]pyrimidin-4-yl}oxy)-2-methylazetidin-1-yl]methyl}-1-{[(2S)-oxetan-2-yl]methyl}-1H-1,3-benzodiazole-6-carboxylic acid], the EC50 was > 500 nM. On to `CCn1cncc1Cn1c(CN2CCC(c3cccc(Oc4ccccc4)c3)C2)nc2ccc(C(=O)O)cc21` (racemic) [Example 134, 1-((1-Ethyl-1H-imidazol-5-yl)methyl)-2-((3-(3-phenoxyphenyl)pyrrolidin-1-yl)methyl)-1H-benzo[d]imidazole-6-carboxylic acid], for which the concentration giving a half-maximal response (EC50) fell in the range of 50 to 500 nM. With `O=C(O)c1ccc2nc(CN3CC=C(c4cnc(COc5ccc(Cl)cc5Cl)o4)C3)n(C[C@@H]3CCO3)c2c1` [Example 474, (S)-2-((3-(2-((2,4-Dichlorophenoxy)methyl)oxazol-5-yl)-2,5-dihydro-1H-pyrrol-1-yl)methyl)-1-(oxetan-2-ylmethyl)-1H-benzo[d]imidazole-6-carboxylic acid] the figure was < 50 nM. With `N#Cc1ccc(OCc2cccc([C@@H]3CCN(Cc4nc5ccc(C(=O)O)cc5n4C[C@@H]4CCO4)C3)c2)c(F)c1` [Compound 414, 2-{[(3S)-3-{3-[(4-cyano-2-fluorophenoxy)methyl]phenyl}pyrrolidin-1-yl]methyl}-1-{[(2S)-oxetan-2-yl]methyl}-1H-1,3-benzodiazole-6-carboxylic acid] the figure was < 50 nM; with `O=C(O)c1cc(F)c2nc(CN3CC=C(c4nc(COc5ccc(Cl)cc5Cl)ccc4F)C3)n(C[C@@H]3CCO3)c2c1` [Compound 451, 2-[(3-{6-[(2,4-dichlorophenoxy)methyl]-3-fluoropyridin-2-yl}-2,5-dihydro-1H-pyrrol-1-yl)methyl]-4-fluoro-1-{[(2S)-oxetan-2-yl]methyl}-1H-1,3-benzodiazole-6-carboxylic acid], < 50 nM; with `O=C(O)c1ccc2nc(CN3CC[C@@H](c4cccc(COc5ccc(Cl)cc5Cl)c4)C3)n(C[C@@H]3CCO3)c2c1` (single isomer, unassigned) [Example 405], < 50 nM. For the compound `N#Cc1ccc(OCc2nccc(C3=CCN(Cc4nc5ccc(C(=O)O)cc5n4C[C@@H]4CCO4)C3)n2)c(F)c1` [Example 395, (S)-2-((3-(2-((4-Cyano-2-fluorophenoxy)methyl)pyrimidin-4-yl)-2,5-dihydro-1H-pyrrol-1-yl)methyl)-1-(oxetan-2-ylmethyl)-1H-benzo[d]imidazole-6-carboxylic acid], the EC50 was < 50 nM. Next, `N#Cc1ccc(OCc2nc([C@]34C[C@H]3CN(Cc3nc5c(F)cc(C(=O)O)cc5n3C[C@@H]3CCO3)C4)ccc2F)c(F)c1` [Compound 532, 2-{[(lR,5R)-1-{6-[(4-cyano-2-fluorophenoxy)methyl]-5-fluoropyridin-2-yl}-3-azabicyclo[3.1.0]hexan-3-yl]methyl}-4-fluoro-1-{[(2S)-oxetan-2-yl]methyl}-1H-1,3-benzodiazole-6-carboxylic acid]: < 50 nM; `CCn1cncc1Cn1c(CN2CCC(Cn3ccc(COc4ccc(Cl)cc4Cl)n3)CC2)nc2ccc(C(=O)O)cc21` [Example 281, 2-((4-((3-((2,4-Dichlorophenoxy)methyl)-1H-pyrazol-1-yl)methyl)piperidin-1-yl)methyl)-1-((1-ethyl-1H-imidazol-5-yl)methyl)-1H-benzo[d]imidazole-6-carboxylic acid]: < 50 nM.

For the compound `O=C(O)c1cc(F)c2nc(CN3CC[C@@H](c4cccc(COc5ccc(Cl)cc5F)n4)C3)n(C[C@@H]3CCO3)c2c1` [Compound 441, 2-{[(3R)-3-{6-[(4-chloro-2-fluorophenoxy)methyl]pyridin-2-yl}pyrrolidin-1-yl]methyl}-4-fluoro-1-{[(2S)-oxetan-2-yl]methyl}-1H-1,3-benzodiazole-6-carboxylic acid], the EC50 is 50 to 500 nM. Next, `O=C(O)c1ccc2nc(CN3CC(Cc4cnc(COc5ccc(Cl)cc5Cl)o4)C3)n(C[C@@H]3CCO3)c2c1` [Compound 191]: < 50 nM. Next, `CCn1cncc1Cn1c(CN2CC(Oc3cccc(COc4ccc(Cl)cc4Cl)c3)C2)nc2ccc(C(=O)O)cc21` [Compound 210, 2-[(3-{3-[(2,4-dichlorophenoxy)methyl]phenoxy}azetidin-1-yl)methyl]-1-[(1-ethyl-1H-imidazol-5-yl)methyl]-1H-1,3-benzodiazole-6-carboxylic acid]: < 50 nM.

(Values after patent US20220396569A1 (Carmot Therapeutics, Inc., priority 2021, published 2022).)
